Species: Rattus norvegicus
Assay: DrugMatrix - Regimen: Daily Repeat
Format: toxicity, organism-based, Sprague-Dawley
Parameters: regimen Daily Repeat, gender Male, age 6-8 weeks
Details: in vivo, po, route oral GAVAGE, vehicle .5 % CMC; for ABSOLUTE BASOPHIL / ABSOLUTE EOSINOPHIL / ABSOLUTE LYMPHOCYTE / ABSOLUTE MONOCYTE / ABSOLUTE SEGMENTED NEUTROPHIL / BASOPHIL / EOSINOPHIL / ERYTHROCYTE COUNT / HEMATOCRIT / HEMOGLOBIN / LEUKOCYTE COUNT / LYMPHOCYTE / MEAN CORPUSCULAR HEMOGLOBIN / MEAN CORPUSCULAR HEMOGLOBIN CONCENTRATION / MEAN CORPUSCULAR VOLUME / MONOCYTE / NEUTROPHIL / NUCLEATED RED BLOOD CELLS / PLATELET COUNT: tissue Blood; for ALANINE AMINOTRANSFERASE / ALBUMIN / ALKALINE PHOSPHATASE / ASPARTATE AMINOTRANSFERASE / BLOOD UREA NITROGEN / CARBON DIOXIDE / CHLORIDE / CHOLESTEROL / CREATINE PHOSPHOKINASE / CREATININE / GLUCOSE / LACTATE DEHYDROGENASE / LIPASE / PHOSPHORUS / POTASSIUM / SODIUM / TOTAL BILIRUBIN / TOTAL PROTEIN / URIC ACID: tissue Plasma
[1] = 10 mg/kg, 72 h, dose level Low, time 3 day
[2] = 10 mg/kg, 120 h, dose level Low, time 5 day
[3] = 1500 mg/kg, 72 h, dose level High, time 3 day
[4] = 1500 mg/kg, 120 h, dose level High, time 5 day

In the case of `NS(=O)(=O)c1cc2c(cc1Cl)NCNS2(=O)=O` [HYDROCHLOROTHIAZIDE], the “ABSOLUTE BASOPHIL” value [1] is reported as 0 CELLS/uL, the “ABSOLUTE EOSINOPHIL” value [1] is reported as 69 CELLS/uL and the “ABSOLUTE LYMPHOCYTE” value [1] is reported as 10610.67 CELLS/uL. The “ABSOLUTE MONOCYTE” value [1] was 107.67 CELLS/uL, the “ABSOLUTE SEGMENTED NEUTROPHIL” value [1] was 3446 CELLS/uL and the BASOPHIL [1] was 0%. The EOSINOPHIL [1] was 0.33%, the “ERYTHROCYTE COUNT” value [1] was 5.79 x10E6/uL and the HEMATOCRIT [1] was 34.73%. The HEMOGLOBIN [1] was 13.77 G/DL, the “LEUKOCYTE COUNT” value [1] was 14.23 x10E3/uL and the LYMPHOCYTE [1] was 77.33%. The “MEAN CORPUSCULAR HEMOGLOBIN” value [1] was 23.8 pg, the “MEAN CORPUSCULAR HEMOGLOBIN CONCENTRATION” value [1] was 39.67 G/DL and the “MEAN CORPUSCULAR VOLUME” value [1] was 60.07 fL. The MONOCYTE [1] was 1%, the NEUTROPHIL [1] was 21.33% and the “NUCLEATED RED BLOOD CELLS” value [1] was 0 /100WBC. For the same molecule, the “PLATELET COUNT” value [1] was 1306 x10E3/uL, the “ALANINE AMINOTRANSFERASE” value [1] was 49 u/L and the ALBUMIN [1] was 4.17 G/DL. For the same molecule, the “ALKALINE PHOSPHATASE” value [1] was 352 u/L, the “ASPARTATE AMINOTRANSFERASE” value [1] was 90.67 u/L and the “BLOOD UREA NITROGEN” value [1] was 14.33 mg/dL. For the same molecule, the “CARBON DIOXIDE” value [1] was 24.33 mmol/L, the CHLORIDE [1] was 103 MEQ/L and the CHOLESTEROL [1] was 65.67 mg/dL. The “CREATINE PHOSPHOKINASE” value [1] was 517.67 u/L, the CREATININE [1] was 0.15 mg/dL and the GLUCOSE [1] was 149.33 mg/dL. For the same molecule, the “LACTATE DEHYDROGENASE” value [1] was 306.67 u/L, the LIPASE [1] was 10 u/L and the PHOSPHORUS [1] was 12.73 mg/dL. For the same molecule, the POTASSIUM [1] was 6.56 MEQ/L, the SODIUM [1] was 144.2 MEQ/L and the “TOTAL BILIRUBIN” value [1] was 0.2 mg/dL. The “TOTAL PROTEIN” value [1] was 5.87 G/DL, the “URIC ACID” value [1] was 2.5 mg/dL and the “ABSOLUTE BASOPHIL” value [2] was 0 CELLS/uL. For the same molecule, the “ABSOLUTE EOSINOPHIL” value [2] was 0 CELLS/uL, the “ABSOLUTE LYMPHOCYTE” value [2] was 12129.67 CELLS/uL and the “ABSOLUTE MONOCYTE” value [2] was 37.67 CELLS/uL. The “ABSOLUTE SEGMENTED NEUTROPHIL” value [2] was 1466 CELLS/uL, the BASOPHIL [2] was 0% and the EOSINOPHIL [2] was 0%. The “ERYTHROCYTE COUNT” value [2] was 5.92 x10E6/uL, the HEMATOCRIT [2] was 36.07% and the HEMOGLOBIN [2] was 14.23 G/DL. The “LEUKOCYTE COUNT” value [2] was 13.63 x10E3/uL, the LYMPHOCYTE [2] was 89.67% and the “MEAN CORPUSCULAR HEMOGLOBIN” value [2] was 24.03 pg. For the same molecule, the “MEAN CORPUSCULAR HEMOGLOBIN CONCENTRATION” value [2] was 39.47 G/DL, the “MEAN CORPUSCULAR VOLUME” value [2] was 60.83 fL and the MONOCYTE [2] was 0.33%. The NEUTROPHIL [2] was 10%, the “NUCLEATED RED BLOOD CELLS” value [2] was 0 /100WBC and the “PLATELET COUNT” value [2] was 1189.67 x10E3/uL. The “ALANINE AMINOTRANSFERASE” value [2] was 46 u/L, the ALBUMIN [2] was 4.07 G/DL and the “ALKALINE PHOSPHATASE” value [2] was 390.67 u/L. For the same molecule, the “ASPARTATE AMINOTRANSFERASE” value [2] was 89.67 u/L, the “BLOOD UREA NITROGEN” value [2] was 13.67 mg/dL and the “CARBON DIOXIDE” value [2] was 25.33 mmol/L. For the same molecule, the CHLORIDE [2] was 101.67 MEQ/L, the CHOLESTEROL [2] was 62 mg/dL and the “CREATINE PHOSPHOKINASE” value [2] was 269.33 u/L. For the same molecule, the CREATININE [2] was 0.2 mg/dL, the GLUCOSE [2] was 162.33 mg/dL and the “LACTATE DEHYDROGENASE” value [2] was 281.67 u/L. It also gave an LIPASE [2] of 9 u/L, a PHOSPHORUS [2] of 11.27 mg/dL and a POTASSIUM [2] of 6.59 MEQ/L. The SODIUM [2] was 143.33 MEQ/L, the “TOTAL BILIRUBIN” value [2] was 0.17 mg/dL and the “TOTAL PROTEIN” value [2] was 5.83 G/DL. The “URIC ACID” value [2] was 2 mg/dL, the “ABSOLUTE BASOPHIL” value [3] was 0 CELLS/uL and the “ABSOLUTE EOSINOPHIL” value [3] was 0 CELLS/uL. For the same molecule, the “ABSOLUTE LYMPHOCYTE” value [3] was 11188.67 CELLS/uL, the “ABSOLUTE MONOCYTE” value [3] was 0 CELLS/uL and the “ABSOLUTE SEGMENTED NEUTROPHIL” value [3] was 1278 CELLS/uL. For the same molecule, the BASOPHIL [3] was 0%, the EOSINOPHIL [3] was 0% and the “ERYTHROCYTE COUNT” value [3] was 5.96 x10E6/uL. For the same molecule, the HEMATOCRIT [3] was 35.57%, the HEMOGLOBIN [3] was 13.93 G/DL and the “LEUKOCYTE COUNT” value [3] was 12.47 x10E3/uL. For the same molecule, the LYMPHOCYTE [3] was 90%, the “MEAN CORPUSCULAR HEMOGLOBIN” value [3] was 23.43 pg and the “MEAN CORPUSCULAR HEMOGLOBIN CONCENTRATION” value [3] was 39.2 G/DL. For the same molecule, the “MEAN CORPUSCULAR VOLUME” value [3] was 59.7 fL, the MONOCYTE [3] was 0% and the NEUTROPHIL [3] was 10%. For the same molecule, the “NUCLEATED RED BLOOD CELLS” value [3] was 0.67 /100WBC, the “PLATELET COUNT” value [3] was 1140 x10E3/uL and the “ALANINE AMINOTRANSFERASE” value [3] was 52.67 u/L. For the same molecule, the ALBUMIN [3] was 4.17 G/DL, the “ALKALINE PHOSPHATASE” value [3] was 353.33 u/L and the “ASPARTATE AMINOTRANSFERASE” value [3] was 88.33 u/L. The “BLOOD UREA NITROGEN” value [3] was 19 mg/dL, the “CARBON DIOXIDE” value [3] was 31 mmol/L and the CHLORIDE [3] was 95.33 MEQ/L. It also gave a CHOLESTEROL [3] of 70.67 mg/dL, a CREATININE [3] of 0.2 mg/dL and a GLUCOSE [3] of 159.33 mg/dL. For the same molecule, the “LACTATE DEHYDROGENASE” value [3] was 413 u/L, the LIPASE [3] was 9.67 u/L and the PHOSPHORUS [3] was 11.27 mg/dL. For the same molecule, the POTASSIUM [3] was 5.57 MEQ/L, the SODIUM [3] was 141.57 MEQ/L and the “TOTAL BILIRUBIN” value [3] was 0.17 mg/dL. For the same molecule, the “TOTAL PROTEIN” value [3] was 5.8 G/DL, the “URIC ACID” value [3] was 1.43 mg/dL and the “ABSOLUTE BASOPHIL” value [4] was 0 CELLS/uL. For the same molecule, the “ABSOLUTE EOSINOPHIL” value [4] was 84 CELLS/uL, the “ABSOLUTE LYMPHOCYTE” value [4] was 12827 CELLS/uL and the “ABSOLUTE MONOCYTE” value [4] was 104 CELLS/uL. For the same molecule, the “ABSOLUTE SEGMENTED NEUTROPHIL” value [4] was 1585 CELLS/uL, the BASOPHIL [4] was 0% and the EOSINOPHIL [4] was 0.67%. For the same molecule, the “ERYTHROCYTE COUNT” value [4] was 5.59 x10E6/uL, the HEMATOCRIT [4] was 33.87% and the HEMOGLOBIN [4] was 13.63 G/DL. For the same molecule, the “LEUKOCYTE COUNT” value [4] was 14.6 x10E3/uL, the LYMPHOCYTE [4] was 88% and the “MEAN CORPUSCULAR HEMOGLOBIN” value [4] was 24.4 pg. The “MEAN CORPUSCULAR HEMOGLOBIN CONCENTRATION” value [4] was 40.23 G/DL, the “MEAN CORPUSCULAR VOLUME” value [4] was 60.63 fL and the MONOCYTE [4] was 0.67%. For the same molecule, the NEUTROPHIL [4] was 10.67%, the “NUCLEATED RED BLOOD CELLS” value [4] was 0 /100WBC and the “PLATELET COUNT” value [4] was 1221.67 x10E3/uL. The “ALANINE AMINOTRANSFERASE” value [4] was 64.67 u/L, the ALBUMIN [4] was 4.33 G/DL and the “ALKALINE PHOSPHATASE” value [4] was 393 u/L. The “ASPARTATE AMINOTRANSFERASE” value [4] was 80 u/L, the “BLOOD UREA NITROGEN” value [4] was 20 mg/dL and the “CARBON DIOXIDE” value [4] was 31.33 mmol/L. For the same molecule, the CHLORIDE [4] was 97 MEQ/L, the CHOLESTEROL [4] was 69 mg/dL and the “CREATINE PHOSPHOKINASE” value [4] was 157.67 u/L. The CREATININE [4] was 0.2 mg/dL, the GLUCOSE [4] was 153.33 mg/dL and the “LACTATE DEHYDROGENASE” value [4] was 110.33 u/L. The LIPASE [4] was 10 u/L, the PHOSPHORUS [4] was 12.1 mg/dL and the POTASSIUM [4] was 6.18 MEQ/L. For the same molecule, the SODIUM [4] was 144.7 MEQ/L, the “TOTAL BILIRUBIN” value [4] was 0.2 mg/dL and the “TOTAL PROTEIN” value [4] was 5.97 G/DL. For the same molecule, the “URIC ACID” value [4] was 1.57 mg/dL.
